Source: patent publication US8349889B2, “Skin-care preparations containing mupirocin and betamethasone dipropionate” (Laboratorios Dermatologicos Darier, S.A. DE C.V., priority 2005, dated 2013)
Where “and” joins values, the source holds several entries; their conditions need not be identical. Identical values can stand only once.

How the values were obtained:
[1] = Active evaluation (USP23 NF/21) of white petrolatum ointment base formula, three samples; format: physicochemical; conditions: Samples 1-3 from different parts of the vessel, specification 90.0 to 110.0%
Protocol: As for the ointment base determination, an ointment base having the following components was tested: white petrolatum (carrier), NF 85 mineral oil (texture and appearance modifier), PEG 40 hydrogenated castor oil (solvent), glycerin (moistener), butyl hydroxy toluene (antioxidant), methyl paraben and propyl paraben (preservatives), mupirocin and betamethasone dipropionate (active ingredients). The manufacture process was the following: In an appropriate size vessel the white petrolatum, mineral oil and glycerin were placed, this mixture was heated up to a temperature of 75° C. and then the butyl hydroxy toluene with the parabens was dissolved; separately in other suitable size vessel the PEG 40 hydrogenated castor oil was placed, heated up to a 60° C. temperature and mupirocin and betamethasone dipropionate were solved therein; when both mixtures were at 60° C. they were mixed and the final product was obtained after lowering the temperature with constant mixing until reaching ambient temperature.
(§1) Once the product was obtained three samples were analyzed, collected from different parts of the vessel containing the product, by Active Evaluation techniques reported for each of them in the individual monographs included in USP23 NF/21.

[2] = Active evaluation (USP23 NF/21) of polyethylene glycol based formula, three samples; format: physicochemical; conditions: formula with PEG 40 hydrogenated castor oil, polyethylene glycol 600, PEG 150 distearate, methyl paraben; Samples 1-3; specification 90.0 to 110.0%
Protocol: Taking the experience that mupirocin and betamethasone dipropionate are soluble at 60° C. in PEG 40 hydrogenated castor oil and in polyethylene glycol 600 (according to Table No. 2), a formulation having the following ingredients is proposed: mupirocin and betamethasone dipropionate (active ingredients), PEG 40 hydrogenated castor oil (cosolvent), polyethylene glycol 600 (balance excipient or carrier), PEG 150 distearate (thickener) and methyl paraben (preservative). The manufacturing process was the following: In an appropriate size vessel the polyethylene glycol 600 and PEG 40 hydrogenated castor oil were placed, this mixture was heated up to a temperature of 70° C. and then the methyl paraben, mupirocin and betamethasone dipropionate were dissolved; once all the above ingredients were dissolved, the temperature was lowered with constant mixing until reaching 60° C.; it was then added the PEG 150 distearate and continued mixing until the mixture was homogenous; the final product was obtained after lowering the temperature with constant mixing until reaching ambient temperature.
as §1

[3] = Incompatibility tests, active evaluation immediately after preparation; format: physicochemical; set-up: unit not given here; conditions: for Active evaluation, Test 1: actives + PEG 40 hydrogenated castor oil, analysed immediately after preparation; for Active evaluation, Test 2: as Test 1 + butyl hydroxy toluene; for Active evaluation, Test 3: as Test 2 + propyl paraben; for Active evaluation, Test 4: as Test 3 + methyl paraben; for Active evaluation, Test 5: as Test 4 + glycerin; for Active evaluation, Test 6: as Test 5 + mineral oil; for Active evaluation, Test 7: as Test 6 + white petrolatum
Protocol: In order to test the possible incompatibility of mupirocin with one of the excipients the following tests reported in Table No. 4 were performed and the results are the following: [table]

[4] = Simple incorporation of the active in white petrolatum at 60° C.; format: physicochemical; conditions: incorporated in white petrolatum at 60° C.; cream color gummy hard precipitate forms
Protocol: According to the results it can be concluded that mupirocin in the presence of white petrolatum undergoes a possible chemical degrading. It then followed a simple incorporation of the active in the white petrolatum at a temperature of 60° C. and it was seen that immediately a cream color precipitate forms having a gummy appearance and hard. […] Therefore, this ointment base with mupirocin is discarded.

Bactericide action tests = conditions: at the concentrations obtained in a 2% topical formulation

SMILES | Evaluation Results [1] | Evaluation Results [2] | Active evaluation, Test 1 [3] | Active evaluation, Test 2 [3] | Active evaluation, Test 3 [3] | Active evaluation, Test 4 [3] | Active evaluation, Test 5 [3] | Active evaluation, Test 6 [3] | Active evaluation, Test 7 [3] | Compatibility with white petrolatum [4] | bactericide action (Bactericide action tests)
CCC(=O)OCC(=O)[C@@]1(OC(=O)CC)[C@@H](C)C[C@H]2[C@@H]3CCC4=CC(=O)C=C[C@]4(C)[C@@]3(F)[C@@H](O)C[C@@]21C [Betamethasone dipropionate] | 100.6% and 100.2% | 99.8% and 100.3% and 100.1% | 100.2 | 100.3 | 100.2 | 99.8 | 100.2 | 100.4 | 99.3 | – | –
C/C(=C\C(=O)OCCCCCCCCC(=O)O)C[C@@H]1OC[C@H](C[C@@H]2O[C@H]2[C@@H](C)[C@H](C)O)[C@@H](O)[C@H]1O [Mupirocin] | 70.5% and 71.2% and 70.7% | 98.7% and 99.1% and 99.4% | 98.8 | 99.3 | 98.7 | 98.9 | 99.0 | 98.8 | 69.8 | incompatible with white petrolatum | has bactericide action
